Where two headings read alike, the source gives them in different places.

Broadly, the EC50 is the concentration that produces a half-maximal response.

One assay concerns the target T1, human SF-1 (Homo sapiens, UniProt Q13285).
T1 construct: expressed in transfected cells; host or cells: CHO-K1 cells (Chinese hamster ovary), transient cotransfection with pG5luc
Put plainly: SF-1 Luc assay (Gal4DBD-SF-1LBD luciferase reporter in transfected CHO-K1 cells). The note with it: CHO-K1 cells transfected with GAL4-SF-1 plasmid, 40 hours incubation; read-out: hSF-1-Luc: EC50. The assay is classed as cell-based. From the text:
BamHI and XbaI sites introduced by the primers […] (forward) and […] (reverse) were used for subcloning the amplicon into pFA-CMV.
Cells were routinely cultured by splitting them from 1:10 to 1:20. […] Four hours after transfection, cells were trypsinized and suspended to a concentration of 1.6×10^5 cells/ml in supplemented Ham's F-12 media.
Assays: The collected cells were resuspended in the culture medium and plated into a 384 well-white plate (Corning Life Sciences, Acton, MA) at 8,000 cells/50 μL/well.
Measurement of SF-1 Transcriptional Activity: SF-1 transcriptional activity was detected as the intracellular Luc activity using SteadyLite Plus HTS Reporter Gene Assay System. After the measurement of the cell viability, the culture media in the 384 well-plate were completely removed. Then, 30 μL of the Luc substrate solution was added into each well and incubated for 10 min at room temperature. After the incubation, luminescence of each well was measured by a microplate reader.
Calculation of the SF-1 Transcriptional Activity (% of Control): The % of control for the transcriptional activity was calculated according to the following equation: % of control=A/B×100 Equation • A: luminescence count in the test article-treated CHO cells transfected with GAL4-SF-1 plasmid • B: mean luminescence count in the vehicle-treated CHO cells transfected with GAL4-SF-1 plasmid
On the technique in general: A reporter such as luciferase makes a cellular process visible.

For assay [1], the system named is rat Leydig tumor cell line R2C. Put plainly: R2C proliferation assay for SF-1 antagonists (EdU incorporation). The class given is cell-based. Particulars: read-out: R2C: EC50. Here is the method:
SF-1 regulates progenitor cell formation and survival in adult Leydig cells. Anti-proliferative effects of SF-1 antagonists using a SF-1+ rat Leydig tumor cell line, R2C, was investigated. Cell proliferation was measured by detecting DNA incorporation of EdU, a nucleoside analogue that can be fluorescently tagged after cell fixation.
Proliferation of the rat Leydig tumor cell line R2C (ATCC® CCL-97™) was assessed using 5-ethynyl-2′-deoxyuridine (EdU), a nucleoside analogue incorporated during DNA synthesis that can be fluorescently tagged after cell fixation. Cycloheximide, a protein synthesis inhibitor, was used as a positive control for the assay.
R2C cells are maintained according to a protocol provided by the American Type Culture Collection (ATCC). At the time of assay, R2C cells were diluted to 1.0 million cells/mL with culture medium (F12 medium supplemented with 2% FBS and 1% Penicillin-Streptomycin) and 50 uL of cell suspension seeded into each well of 384-well clear bottom plates. The assay plates were incubated in a humidified, 37° C., 6% CO2 atmosphere for 24 hours. Serially diluted SF-1 antagonists, cycloheximide or vehicle (DMSO) were then applied to the R2C cells and incubated in a humidified, 37° C., 6% CO2 atmosphere for two days. EdU (Invitrogen), at a final concentration of 5 μM, was added to the cells and incubated for an additional 16 hours, after which cells were fixed with 10% formalin.
Cells were then washed and permeabilized in 0.5% TritonX-100/PBS solution at RT for 1 hour. EdU incorporation was detected by labeling EdU with 6-FAM azide (Lumiprobe) using a copper (I)-catalyzed Click reaction between an azide and alkyne. The reaction mixture consists of 5 mM ascorbic acid, 1 mM CuSO4, 1 μM 6-FAM azide dissolved in PBS buffer. […] For data normalization, the average fluorescence of DMSO wells was defined as 100%, and average fluorescence of 10 μM cycloheximide wells was defined as 0%. Curve fitting and EC50 determination were performed using the variable slope sigmoidal dose-response analysis.
R2C cells were routinely cultured in R2C culture medium. To assay SF-1 antagonist inhibitory activity, R2C cells were resuspended in the R2C plating medium and plated into a 384 well-clear bottom black plate at 20,000 cells/50 μL/well. […] 10 μL EdU plating solution were then dispensed into each well of assay plate incubated at 37° C., 6% CO2 for two days.
R2C proliferation is measured by detecting the fluorescent labelled EdU. The R2C assay plates were fixed by dispense 60 μL of 10% formalin into each well, and the plates were incubated at room temperature for 1 hour on an orbital shaker. The plates were washed with 80 μL of PBS three times, and cells were permeabilized by treating with 100 μL of PBS-0.5% TritonX-100 at RT for 1 hour on an orbital shaker. The plates were washed with 80 μL of PBS three times, and after the last wash, 25 μL of PBS was dispensed into each well. 25 μL of 2× mounting mix solution was then added into each well of fixed cells, and the plates were incubated at RT for 30 min in the dark on an orbital shaker. The cells were washed with 80 μL of PBS, three times, and after the last wash, 25 μL of PBS was dispensed into each well. […] The cells were washed with 80 μL of PBS, three times, and after the last wash, 50 μL of PBS was dispensed into each well. Assay plates were sealed with aluminum foil, and fluorescence was measured using a Envision microplate reader.
The % of control for the proliferation activity was calculated according to the following equation: % of control=100×(A−C)/(B−C) Equation • A: fluorescence count in the test article-treated R2C cells • B: mean fluorescence count in the vehicle-treated R2C cells • C: mean fluorescence count in the 10 μM cycloheximide-treated R2C cells

T1 sequence (Q13285 198-461 limits assumed): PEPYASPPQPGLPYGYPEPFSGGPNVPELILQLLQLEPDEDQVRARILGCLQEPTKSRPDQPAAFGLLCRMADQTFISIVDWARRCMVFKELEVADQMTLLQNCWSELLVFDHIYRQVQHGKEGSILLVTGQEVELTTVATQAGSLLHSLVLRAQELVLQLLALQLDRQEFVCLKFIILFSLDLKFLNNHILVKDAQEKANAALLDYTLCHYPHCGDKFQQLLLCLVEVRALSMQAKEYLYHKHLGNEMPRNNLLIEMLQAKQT

As to `C[C@H](CO)Oc1ccc(NC(=O)Cn2cnc3c(Nc4ccc(C(F)(F)F)cc4)nn(C)c3c2=O)cc1` (single isomer, unassigned) [Compound 25], the EC50 on human SF-1 is below 0.2 µM; in assay [1] (R2C cells, EdU incorporation) it was below 0.2 µM.
As for `C[C@@H](CO)Oc1ccc(NC(=O)Cn2cnc3c(Nc4ccc(C(F)(F)F)cc4)nn(C)c3c2=O)cc1` (single isomer, unassigned) [Compound 26], the EC50 was below 0.2 µM at human SF-1 and below 0.2 µM in assay [1] (R2C cells, EdU incorporation).
As for `Cn1nc(Nc2ccc(C(F)(F)F)cc2)c2ncn(CC(=O)N[C@H]3CCC[C@H](OC(F)F)C3)c(=O)c21` (single isomer, unassigned) [Compound 43], the 50% effective concentration (EC50) (at human SF-1; in assay [1] (R2C)) was below 0.2 µM each time.
Take `Cn1nc(Nc2ccc(C(F)(F)F)cc2)c2ncn(CC(=O)N[C@@H]3CCC[C@@H](OC(F)F)C3)c(=O)c21` (single isomer, unassigned) [Compound 44]: the EC50 (at human SF-1; in assay [1] (R2C)) was below 0.2 µM each time.
Take `Cn1nc(Nc2ccc(C(F)(F)F)cc2)c2ncn(CC(=O)N[C@H]3CCC[C@@H](OC(F)F)C3)c(=O)c21` (single isomer, unassigned) [Compound 48]: the EC50 (at human SF-1; in assay [1] (R2C)) was below 0.2 µM throughout.
As for `Cn1nc(Nc2ccc(C(F)(F)F)cc2)c2ncn(CC(=O)N[C@@H]3CCC[C@H](OC(F)F)C3)c(=O)c21` (single isomer, unassigned) [Compound 49], the half-maximal effective concentration (EC50) (at human SF-1; in assay [1] (R2C)) was below 0.2 µM in each case.
Consider `COc1ccc(NC(=O)Cn2cnc3c(Nc4ccc(C(F)(F)F)cc4)nn(C)c3c2=O)cc1F` [Compound 11, N-(3-fluoro-4-methoxyphenyl)-2-(1-methyl-7-oxo-3-((4-(trifluoromethyl)phenyl)amino)-1,7-dihydro-6H-pyrazolo[4,3-d]pyrimidin-6-yl)acetamide], for which the concentration giving a half-maximal response (EC50) on human SF-1 was below 0.2 µM; in assay [1] (R2C cells, EdU incorporation), below 0.2 µM.
In the case of `Cn1nc(Nc2ccc(C(F)(F)F)cc2)c2ncn(CC(=O)Nc3ccc(C(C)(C)S(C)(=O)=O)cc3)c(=O)c21` [Compound 12, 2-(1-methyl-7-oxo-3-((4-(trifluoromethyl)phenyl)amino)-1,7-dihydro-6H-pyrazolo[4,3-d]pyrimidin-6-yl)-N-(4-(2-(methylsulfonyl)propan-2-yl)phenyl)acetamide], the EC50 was below 0.2 µM on human SF-1 and below 0.2 µM in assay [1] (R2C cells, EdU incorporation).
For the compound `Cn1nc(Nc2ccc(C(F)(F)F)cc2)c2ncn(CC(=O)NC3CCOCC3)c(=O)c21` [Compound 13, 2-(1-methyl-7-oxo-3-((4-(trifluoromethyl)phenyl)amino)-1,7-dihydro-6H-pyrazolo[4,3-d]pyrimidin-6-yl)-N-(tetrahydro-2H-pyran-4-yl)acetamide], the EC50 on human SF-1 was below 0.2 µM; in assay [1] (R2C cells, EdU incorporation), 0.2 to 1 µM.
The like results for `Cn1nc(Nc2ccc(C(F)(F)F)cc2)c2ncn(CC(=O)NCC3CCOCC3)c(=O)c21` [Compound 14, 2-(1-methyl-7-oxo-3-((4-(trifluoromethyl)phenyl)amino)-1,7-dihydro-6H-pyrazolo[4,3-d]pyrimidin-6-yl)-N-((tetrahydro-2H-pyran-4-yl)methyl)acetamide] were, in that order, below 0.2 µM and 0.2 to 1 µM.
As for `Cn1nc(Nc2ccc(C(F)(F)F)cc2)c2ncn(CC(=O)NC(C)(C)C3CCOCC3)c(=O)c21` [Compound 15, 2-(1-methyl-7-oxo-3-((4-(trifluoromethyl)phenyl)amino)-1,7-dihydro-6H-pyrazolo[4,3-d]pyrimidin-6-yl)-N-(2-(tetrahydro-2H-pyran-4-yl)propan-2-yl)acetamide], the EC50 fell in the range of 0.2 to 1 µM at human SF-1 and 1 to 10 µM in assay [1] (R2C cells, EdU incorporation).
Take `C[C@@H](NC(=O)Cn1cnc2c(Nc3ccc(C(F)(F)F)cc3)nn(C)c2c1=O)C1CCOCC1` [Compound 16, (R)-2-(1-methyl-7-oxo-3-((4-(trifluoromethyl)phenyl)amino)-1,7-dihydro-6H-pyrazolo[4,3-d]pyrimidin-6-yl)-N-(1-(tetrahydro-2H-pyran-4-yl)ethyl)acetamide]: the EC50 at human SF-1 is 0.2 to 1 µM; in assay [1] (R2C cells, EdU incorporation), 1 to 10 µM.
For the compound `C[C@H](NC(=O)Cn1cnc2c(Nc3ccc(C(F)(F)F)cc3)nn(C)c2c1=O)C1CCOCC1` [Compound 17, (S)-2-(1-methyl-7-oxo-3-((4-(trifluoromethyl)phenyl)amino)-1,7-dihydro-6H-pyrazolo[4,3-d]pyrimidin-6-yl)-N-(1-(tetrahydro-2H-pyran-4-yl)ethyl)acetamide], the EC50 at human SF-1 was below 0.2 µM; in assay [1] (R2C cells, EdU incorporation) it was 0.2 to 1 µM.
In the case of `Cc1cc(C(C)(C)S(C)(=O)=O)ccc1NC(=O)Cn1cnc2c(Nc3ccc(C(F)(F)F)cc3)nn(C)c2c1=O` [Compound 18, N-(2-methyl-4-(2-(methylsulfonyl)propan-2-yl)phenyl)-2-(1-methyl-7-oxo-3-((4-(trifluoromethyl)phenyl)amino)-1,7-dihydro-6H-pyrazolo[4,3-d]pyrimidin-6-yl)acetamide], the EC50 was below 0.2 µM on human SF-1 and below 0.2 µM in assay [1] (R2C cells, EdU incorporation).
In the case of `Cn1nc(Nc2ccc(C(F)(F)F)cc2)c2ncn(CC(=O)Nc3ccc(C(C)(C)C(=O)O)cc3)c(=O)c21` [Compound 19, 2-methyl-2-(4-(2-(1-methyl-7-oxo-3-((4-(trifluoromethyl)phenyl)amino)-1,7-dihydro-6H-pyrazolo[4,3-d]pyrimidin-6-yl)acetamido)phenyl)propanoic acid], the 50% effective concentration (EC50) at human SF-1 lay in the range of 0.2 to 1 µM; in assay [1] (R2C cells, EdU incorporation), 0.2 to 1 µM.
For the compound `Cn1nc(Nc2ccc(C(F)(F)F)cc2)c2ncn(CC(=O)Nc3ccc(OCC(C)(C)O)cc3)c(=O)c21` [Compound 20, N-(4-(2-hydroxy-2-methylpropoxy)phenyl)-2-(1-methyl-7-oxo-3-((4-(trifluoromethyl)phenyl)amino)-1,7-dihydro-6H-pyrazolo[4,3-d]pyrimidin-6-yl)acetamide], the EC50 at human SF-1 was below 0.2 µM; in assay [1] (R2C cells, EdU incorporation), below 0.2 µM.
Take `Cn1nc(Nc2ccc(C(F)(F)F)cc2)c2ncn(CC(=O)Nc3ccc(C(C)(C)C(N)=O)cc3)c(=O)c21` [Compound 21, 2-methyl-2-(4-(2-(1-methyl-7-oxo-3-((4-(trifluoromethyl)phenyl)amino)-1,7-dihydro-6H-pyrazolo[4,3-d]pyrimidin-6-yl)acetamido)phenyl)propanamide]: the EC50 at human SF-1 is below 0.2 µM; in assay [1] (R2C cells, EdU incorporation), below 0.2 µM.
Take `C[C@H](O)CO[C@H]1CC[C@H](NC(=O)Cn2cnc3c(Nc4ccc(C(F)(F)F)cc4)nn(C)c3c2=O)CC1` [Compound 22, N-((1S,4r)-4-((S)-2-hydroxypropoxy)cyclohexyl)-2-(1-methyl-7-oxo-3-((4-(trifluoromethyl)phenyl)amino)-1,7-dihydro-6H-pyrazolo[4,3-d]pyrimidin-6-yl)acetamide]: the EC50 at human SF-1 was below 0.2 µM; in assay [1] (R2C cells, EdU incorporation), below 0.2 µM.
